Laboratory results taken from patent publication US6200962A, “Thionophosphate derivatives, process for their preparation and pharmaceutical compositions containing them” (priority 1994, dated 2001).

How the values were obtained:
[1] = Pro-oxidative effect: oxygen consumption with copper; settings: for oxygen consumption: 10 mM, Cu2+ 10 mM, pH 7.2, 37 °C; for Rate of oxygen consumption: Table 1, 10 mM with Cu2+ 10 mM
Description: Oxygen consumption from solutions that contained AMTPs or other antioxidants such as cystine or ascorbic acid at 10 mM each, and copper sulfate 10 mM, was monitored by Biological Oxygen Monitor, model YSI 53.
AMTP molecules (10 mM) were incubated at pH=7.2 37° C. with Cu^2+ (10 mM). Oxygen consumption from the solution was measured with a Clark electrode (biological oxygen monitor). No oxygen consumption was observed from the solution. […] The oxygen consumption rate is referred to free radical production rate.

[2] = literature; cited from earlier work
[3] = oil(mineral)/water and octanol/water partitioning; assay type: physicochemical; settings: for logP: octanol/water, read-out: P (octanol/water) (converted); for P (oil/water): oil(mineral)/water
Description: The basic chemical structure of the compounds of the invention includes the group --P--N=S, which resembles the thiourea --N--C=S core, in which the central carbon atom has been replaced by a phosphorus atom, to give --N--P=S, which is the characteristic functional group the novel compounds of the invention. This functional group is based on a primary amido thionophosphate (AMTP) chemical bond. The specific compounds shown in FIG. 1, which are only representative of the numerous possible compounds, differ in their oil(mineral) /water and octanol/water partitioning: […]

[4] = Lipid hydroperoxides in partially oxidized SUV liposomes; settings: 5 mM
Description: SUV liposomes were prepared from egg lecitin at 10% lipid concentration in a 50 ml HEPES buffer pH=6.9 according to already published procedures [Lichtenberg, D. and Barenholz. Y. (1988) Methods of Biochemical Analysis 33:337-462].
Lipid hydroperoxides were monitored by a modified micromolar sensitive spectroscopic method [Siddiqi, A. M. and Tappel, A. L. (1955) Chemist Analyst 44:52]. 50λ of lipids (liposomes or emulsion) were dissolved in 1 ml ethanol. 50λ of 50% potassium iodide solution were then added and the mixture was incubated for half an hour in the dark. The developed color was read in a spectrophotometer at 400 nm.
SUV Liposomes (12.5 mM) with certain degrees of oxidation were incubated with 5 mM AMTP molecules for period of 24 h. Peroxidation number (PN) was measured with potassium iodide in ethanol. AMTPs were able to decompose lipid hvdroperoxide and to reduce the peroxidation number (PN).

BSA [5] = experiment: BSA oxidation by NaOCl, fluorescence (tryptophan); settings: NaOCl 1 mM
Description: BSA (0.5 mg/ml) in a 1 ml HEPES Buffer pH=7.2(50 mM) was incubated for 15 min with 1 mM sodium hypochlorite. Various concentrations of AMTP (compound B) were added to protect the protein. The sample was diluted in 3 ml of HEPES buffer and fluorescence was measured (lex =280 nm, lem =345 nm) in a JASCO FP-770 spectrotluorometer. Fluorescence decav was due to tryptophan and tyrosine oxidation. Alternatively, BAS (0.5 mg/ml) in HEPES buffer (1 ml) was incubated with 2,2'-azobis-(2-amidinopropane)-HCL (AAPH) (a water soluble peroxy radical initiator) (50 mM) at 37° C. for a period of 4 h. The sample was diluted with 2 ml of the buffer and fluorescence was measured [Hazell, L. and Stocker, R. (1993) Biochem. J. 290:165-172].
(§1) BSA's tryptophan oxidation and BSA's cystine oxidation were the models for protein damage by NaOCl (FIG. 11 and FIG. 12 respectively). BSA fluorescence intensity decreased following oxidative stress of NaOCI (1 mM). […] Out of the three AMTP compounds the most lipophilic (A) was best in preventing the damage and provided 94% protection on the protein.

BSA [6] = experiment: BSA's cystine oxidation by NaOCl (DTNB); settings: NaOCl 1 mM
Description: BSA (0.5 mg/ml) in Imi HEPES buffer pH=7.2(50 mM) was incubated with sodium hypochlorite (1 mM) for 15 min. The protein was dialyzed for 2 h against 2×500 vol of HEPES buffer to remove free sodium hypochlorite. 301 DTNB 0.015 M in water was then added to the protein solution and color was measured at 420 nm. AMTPs were added to the protein sample to protect it against sodium hypochlorite [Hazell and Stocker, ibid.].
as §1

Human skin fibroblasts = experiment: Chromium release from fibroblasts, killing by streptolysin S and glucose oxidase; assay type: cell-based
Description: Human skin fibroblasts were kindly supplied by the Department for Human Genetics at Hadassa Hospital in Jerusalem. The cells were grown in D-MEM medium supplemented with glutamine, penicillin, and streptomycin and 10% fetal calf serum [Ginsburg, I. et al. (1992) Inflammation 16:519-538]. Radiolabeled cell monolayers were prepared by the addition of 10 μCi/ml of [^51 Cr]NaCrO4 (New England Nuclear) to […] of trypsinized cells grown in 75-ml tissue culture bottles. The cells were then dispensed into 24-well tissue culture plates (Nunc, Roskilde, Denmark) and grown to confluency in a CO2 incubator.
Hydrogen peroxide flux was generated by the addition of glucose oxidase (0.5 units/ml) to the tissue culture media. Streptolysin S (SLS) of Croup A Streptococci (17 hemolytic units/ml) was employed as a membrane damaging agent.
Culture monolayers were treated for 1 h with the agents listed above. The cultures were monitored periodically for changes in cell morphology. To assess cytotoxicity, the supernatant fluids were removed and centrifuged at 2000 rpm for 2 min. The solubilized radioactivity was then determined in a Contron gamma counter. The total radioactivity associated with untreated controls was solubilized by the addition of 1 ml of 1% Triton X-100. (AMTPs influence on SLS hemolytic activity and on glucose oxidase activity was also tested. No influences were observed).
Fibroblasts in culture were exposed to a synergistic killing mechanism (streptolysin S in combination with an oxidant glucose oxidase) in a D-MEM culture medium that contained 1 mg/ml of glucose (about 0.5-1 mM of H2 O2 was produced after 1 hour of incubation at 37° C.). This system caused about 60% chromium released within an hour. […] The positive controls were DMTU and catalase.

[7] = Solubility in D-MEM medium; assay type: physicochemical; settings: not soluble above this concentration
[8] = Hydroxyl radical deoxyribose assay
Description: A modification of the assay described by Halliwell et al. [Halliwell, B. et al. (1987) Analyt. Biochem. 165:215-219] was developed. 2-Deoxyribose was purchased form Sigma Chemical Co. All other chemicals for the assay were purchased from BDH Chemicals Ltd. Degradation of deoxy ribose was achieved bv a mixture of Fe^2+, EDTA, ascorbic acid and H2 O2. […] The reaction mixture was incubated for 1 h at 37° C. Scavenging of hydroxyl radical was done by various concentrations of AMTP (compound C), and color was developed by reaction with thiobarbituric acid as described [Halliwell, B. et al., ibid.]
A^-1 =A0^-1 {1+K[S]×(KDR [DR])^-1 } Equation 1
where A is the absorbance in the presence of a scavenger S (AMTPs) at a concentration [S] and A0 is the absorbance in the absence of a scavenger KDR =3.1*10^9 (reaction constant between deoxyribose and OH. radical) [Ebert, M., et al. (1965) Pulse Radiolysis, Academic Press, London] and [DR]=18 mM. […] Considering the fast reaction between H2 O2 and Fe^2+ --NTA and the slow reaction rate between AMTP and hydrogen peroxide as monitored in the ^31 P experiments (FIG. 5), the light decay may be exclusively attributed to hydroxyl radical scavenging.

In the case of `O=C1O[C@H]([C@@H](O)CO)C(O)=C1O` [Ascorbic acid], the oxygen consumption [1] is reported as “significant oxygen consumption” and the “Rate of oxygen consumption” value [1] is reported as 2.87e-05 M/min.

For `CNC(=S)NC` [DMTU, N,N'-dimethyl thiourea], the toxicity [2] is given as “considered a toxic compound”.

In the case of `NC(=S)Nc1cccc2ccccc12` [α-naphthyl-thiourea], the LD50 [2] is listed as “about 10 mg/kg”.

In the case of `N[C@@H](CSSC[C@H](N)C(=O)O)C(=O)O` [cystine], the oxygen consumption [1] is reported as “significant oxygen consumption” and the “Rate of oxygen consumption” value [1] is reported as 2.35e-06 M/min.

For `CCCCNP(=S)(OCC)OCC` [Compound A, n-butylamido diethylthioiiophosphate], the logP [3] was 0.788, the “P (oil/water)” value [3] was 4.82 and the “reduction of PN, comparative” value ([4]; after 24 h) was “more effective in reducing PN”. The “protection of BSA fluorescence” value (BSA [5]) was 94%, the “protection of BSA's cystines” value (BSA [6]) was “strong protection” and the inhibition at 2000 µM (Human skin fibroblasts; Homo sapiens, Skin fibroblast, 1 h, 2 mM, read-out: protection against cell killing) was 10%. The solubility [7] was at most 2000 µM.

For `CCOP(=S)(NCCC(=O)O)OCC` [Compound C, 2-carboxyamidodiethyl thionophosphate], the logP [3] was -0.357, the “P (oil/water)” value [3] was 0.39 and the “reaction rate constant with hydroxyl radicals” value ([8]; calculated from equation 1, 18 mM deoxyribose) was 1.5×10^9 M^-1 S^-1. The hydroxyl radical scavenging ([8]; deoxyribose degradation) was “potent hydroxyl radical scavengers”, the “reduction of PN, comparative” value ([4]; first few hours of incubation) was “more efficient in the first few hours” and the “toxic effects on the cell” value (Human skin fibroblasts; concentrations of up to 20 mM, compound alone) was “did not show any toxic effects”. The “protection against cell killing” value (Human skin fibroblasts; concentrations up to 10 mM, 60 min) was 50-60%.
